This is an account of results in PMC6534834 (Breast Cancer Research : BCR, 2019).

Data set [1] deals with Cyp3A4. The settings on record: cited from earlier work.
The target in data set [2] is T1, aromatase (Homo sapiens, UniProt P11511).
T1 sequence (P11511 1-503): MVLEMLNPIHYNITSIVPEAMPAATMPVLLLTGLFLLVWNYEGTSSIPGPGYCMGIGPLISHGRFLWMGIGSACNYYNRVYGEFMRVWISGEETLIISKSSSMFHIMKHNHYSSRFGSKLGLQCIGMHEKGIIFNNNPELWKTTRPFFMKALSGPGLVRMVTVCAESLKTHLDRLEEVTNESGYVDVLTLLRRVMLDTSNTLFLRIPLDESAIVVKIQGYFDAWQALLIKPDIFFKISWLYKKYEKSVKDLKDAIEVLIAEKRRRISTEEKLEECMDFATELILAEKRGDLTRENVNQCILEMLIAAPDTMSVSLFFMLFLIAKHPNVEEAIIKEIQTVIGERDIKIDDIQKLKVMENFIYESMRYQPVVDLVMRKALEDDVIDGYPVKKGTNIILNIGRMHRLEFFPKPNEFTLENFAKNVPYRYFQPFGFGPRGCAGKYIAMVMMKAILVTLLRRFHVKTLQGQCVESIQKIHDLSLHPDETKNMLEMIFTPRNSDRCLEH
Also noted: endogenous in cells; host or cells: Tissues of the trial patients (in vivo). Particulars: cited from earlier work; for Patients with 17-B-estradiol above the LLD: randomized 3-month crossover letrozole/anastrozole.

Data set [3] in a line: Letrozole plasma pharmacokinetics (UPLC-MS/MS). The settings on record: letrozole in plasma; for Cmax / AUC(0-t) / Tmax: human, plasma, oral; for AUC(0-t): read-out: Mean AUC0-last. The class given is in vivo, human.
The nature of data set [4]: Nintedanib (BIBF1120-BS and metabolite BIBF1202-ZW) plasma pharmacokinetics (LC-MS/MS). The class given is in vivo, human. Particulars: for Pharmacokinetic interaction: increase in plasma concentrations: nintedanib and letrozole co-administered, three- for nintedanib, twofold for letrozole (respective); for Mean plasma concentration at steady state (day 29) compared with day 1: level 2; for Mean Cmax / Mean AUC0-last / Mean Tmax / Cmax / Tmax / AUC(0-t): nintedanib species in plasma; for Cmax / Tmax / AUC(0-t): human, plasma, oral; for AUC(0-t): read-out: Mean AUC0-last.

The conditions of data set [5]: human, in vivo.
The target in data set [6] is T1, aromatase. The data set can be described thus: Plasma 17-B-estradiol level (clinical assay, LLD 5 pg/mL), pharmacodynamic marker of aromatase inhibition in patients. Also noted: endogenous in cells; host or cells: Tissues of the trial patients (in vivo). It is filed as in vivo.
Data set [7] concerns FGFR. The settings on record: at the RP2D; cited from earlier work.
For data set [8], the system named is tumors with FGFR gene alterations. The settings on record: cited from earlier work.
The mark [9] stands for this setting: level 1 (nintedanib 150 mg/bid + letrozole […]), day 1.
Where [10] appears, read: level 2 (nintedanib 200 mg/bid + letrozole […]), day 1.

Read-outs that look alike come from different tables or passages of the source.

As usually defined, the Cmax is the highest concentration seen after dosing. A word on the Tmax: it is the time from dosing to the highest level.

For `CC(C)(C#N)c1cc(Cn2cncn2)cc(C(C)(C)C#N)c1` [anastrozole], in data set [1], the Metabolizing enzyme result is given as “metabolized by Cyp3A4”. Moreover, the “Patients with plasma 17-B-estradiol concentrations below the LLD” value in data set [2] (n = 191) is recorded as 83%. In data set [2], the “Patients with 17-B-estradiol above the LLD” value was 37%.
Regarding `N#Cc1ccc(C(c2ccc(C#N)cc2)n2cncn2)cc1` [letrozole], the Cmax is 100 ng/mL in data set [3] (Level 1 (nintedanib 150 mg/bid + letrozole […]), day 1); 89.4 ng/mL in data set [3] (Level 1, day 29); 124 ng/mL in data set [3] (Level 2 (nintedanib 200 mg/bid + letrozole […]), day 1); 148 ng/mL in data set [3] (Level 2, day 29). Besides, the AUC(0-t) was found to be 2200 ng·h/mL in data set [3] (Level 1, day 1); 2060 ng·h/mL in data set [3] (Level 1, day 29); 2780 ng·h/mL in data set [3] (Level 2, day 1); 3170 ng·h/mL in data set [3] (Level 2, day 29). Also, the Tmax in data set [3] (Level 1, day 29) is 4 h; in data set [3] (Level 2, day 1), 4 h; in data set [3] (Level 2, day 29), 2 h. For the same compound, in data set [3] (Level 1, day 1), the “Mean Tmax” value was 0 h. In data set [4], the “Pharmacokinetic interaction: increase in plasma concentrations” value was “three- and twofold increases in their respective plasma concentrations”. The “Grade 3 toxic events attributed to letrozole” value in data set [5] is recorded as “No grade 3 toxic events were attributed to letrozole”. Besides, the Metabolizing enzyme result in data set [1] (no reference given) is on record as “metabolized by Cyp3A4”. Moreover, the “Patients with undetectable 17-B-estradiol levels (below LLD 5 pg/mL)” value came to 100% in data set [6] (EOT visit, 4 weeks after ceasing nintedanib administration) and 87.5% in data set [6] (day 1 (baseline), letrozole alone […] for at least 4 weeks). In addition, the “Suppression of aromatase activity” value in data set [2] (early letrozole trials) is over 95%. The “Patients with 17-B-estradiol above the LLD” value in data set [2] is 2%.
As to `CN1CCN(CC(=O)N(C)c2ccc(N/C(=C3\C(=O)Nc4cc(C(=O)O)ccc43)c3ccccc3)cc2)CC1` [BIBF1202-ZW], the “Mean plasma concentration at steady state (day 29) compared with day 1” value in data set [4] is recorded as “almost twofold higher”. For the same compound, the “Mean Cmax” value in data set [4] (setting [9]) came out at 24 ng/mL; in data set [4] (level 1, day 29) it was 28 ng/mL; in data set [4] (setting [10]), 41 ng/mL; in data set [4] (level 2, day 29), 67 ng/mL. Moreover, the “Mean AUC0-last” value in data set [4] (level 1, day 1) came out at 200 ng·h/mL; in data set [4] (level 1, day 29), 367 ng·h/mL; in data set [4] (level 2, day 1), 413 ng·h/mL; in data set [4] (level 2, day 29) it was 824 ng·h/mL. The “Mean Tmax” value in data set [4] (level 1, day 1) was 1.9 h; in data set [4] (level 1, day 29) it was 1.1 h; in data set [4] (level 2, day 1), 3.3 h; in data set [4] (level 2, day 29) it was 3.0 h.
Consider `COc1cc(OC)cc(N(CCNC(C)C)c2ccc3ncc(-c4cnn(C)c4)nc3c2)c1` [JNJ-42756493], for which the “Increase in FGF23 concentrations” value in data set [7] was ~ 20%.
In the case of `COC(=O)c1ccc2c(c1)NC(=O)/C2=C(\Nc1ccc(N(C)C(=O)CN2CCN(C)CC2)cc1)c1ccccc1` [nintedanib], the Cmax in data set [4] (setting [9]) is 51 ng/mL; in data set [4] (level 1, day 29), 50 ng/mL; in data set [4] (setting [10]) it was 65 ng/mL; in data set [4] (level 2, day 29), 92 ng/mL. In addition, the Tmax in data set [4] (level 1, day 1) amounted to 1.9 h; in data set [4] (level 1, day 29), 1.1 h; in data set [4] (level 2, day 1), 2 h; in data set [4] (level 2, day 29) it was 2 h. The AUC(0-t) turned out to be 339 ng·h/mL in data set [4] (level 1, day 1); 519 ng·h/mL in data set [4] (level 1, day 29); 599 ng·h/mL in data set [4] (level 2, day 1); 941 ng·h/mL in data set [4] (level 2, day 29). Further, the “BIBF1120-BS AUC on day 29 compared with day 1” value in data set [4] (in vivo) is given as “almost twofold higher”. The “Mean plasma concentration at steady state (day 29) compared with day 1” value in data set [4] is “almost twofold higher”. Also, in data set [4], the “Pharmacokinetic interaction: increase in plasma concentrations” value is “three- and twofold increases in their respective plasma concentrations”. Moreover, the “BIBF1120-BS AUC on day 29 compared with steady-state values reported in phase I studies” value in data set [4] (versus nintedanib monotherapy [28], with pemetrexed [27], or paclitaxel plus carboplatin [47]) is listed as “two to threefold higher”. Also, the Metabolizing enzyme entry in data set [1] (no reference given) was “metabolized by Cyp3A4”.
For `CCN1CCN(c2ccc(Nc3cc(N(C)C(=O)Nc4c(Cl)c(OC)cc(OC)c4Cl)ncn3)cc2)CC1` [BGJ398], the “Increase in FGF23 concentrations” value in data set [7] is recorded as ~ 50%.
Turning to AZD4547, the Disease stabilization rate in data set [8] (MATCH arm W, patients with FGFR amplifications) is 50%. For the same compound, in data set [8] (arm W of the MATCH trial), the Response rate is reported as 8%.
